The source made the active and inactive calls.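 The calls were made as follows: active = Change of at least 30% in epidermal growth factor receptor protein level versus solvent-only controls, drop or rise; inactive = receptor level change under 30% either way.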
Tested on: HCT116 EGFR protein level, western blot, 24 h
Assay: reduction of EGFR protein levels, late-stage follow-up, counter-screen for KLF5 inhibitor project, cell-based, HCT116 colorectal carcinoma, chemiluminescent western blot (AID 588648)
Conditions: at 10 µM; for inhibition: stronger effect = higher value; for fold change: measured here: EGFR band fold change vs DMSO

SMILES | inhibition | fold change
CN(C(=O)COC(=O)/C=C/c1cccc([N+](=O)[O-])c1)C1CCS(=O)(=O)C1 (stereo unspecified) | 1.68% (inactive) | -1.02
CN(C(=O)CNC(=O)/C=C/c1cccc(Cl)c1)C1CCS(=O)(=O)C1 (stereo unspecified) | 10.3% (inactive) | -1.11
CN(C(=O)CNC(=O)/C=C/c1cccc(Cl)c1)C1CCS(=O)(=O)CC1 | 12.7% (inactive) | -1.15
